Like-named read-outs stand apart in the source and are kept apart here. Some results are limits rather than exact numbers.

This is an account of results in patent US10758534B2 (Vertex Pharmaceuticals Incorporated, priority 2014, dated 2020).

In this test the target is T1, F508del (Homo sapiens, UniProt P13569, DEL508-508).
T1 construct: expressed in transfected cells
Kind of test: Protocol 2: FRET membrane potential optical assay (VIPR), identification of correction compounds. The class given is cell-based. The procedure, abridged:
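Corrector readout: membrane-potential FRET (CC2-DMPE donor, DiSBAC2(3) acceptor) on VIPR II after Cl⁻-free gluconate bath with 10 μM forskolin and 20 μM genistein. Before this, F508del-expressing NIH3T3 cells were exposed to test compound for 16 h at 37 °C without serum; 27 °C incubation served as temperature-correction control.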

Where [1] appears, read: F508del CFTR modulator activity, compounds of Table 1, read-out: EC30.
The mark [2] stands for this setting: Table 3, compounds of Table 1 as modulators of CFTR activity, protocol not stated.

T1 sequence (P13569 with tags, fused parts or gaps DEL508-508): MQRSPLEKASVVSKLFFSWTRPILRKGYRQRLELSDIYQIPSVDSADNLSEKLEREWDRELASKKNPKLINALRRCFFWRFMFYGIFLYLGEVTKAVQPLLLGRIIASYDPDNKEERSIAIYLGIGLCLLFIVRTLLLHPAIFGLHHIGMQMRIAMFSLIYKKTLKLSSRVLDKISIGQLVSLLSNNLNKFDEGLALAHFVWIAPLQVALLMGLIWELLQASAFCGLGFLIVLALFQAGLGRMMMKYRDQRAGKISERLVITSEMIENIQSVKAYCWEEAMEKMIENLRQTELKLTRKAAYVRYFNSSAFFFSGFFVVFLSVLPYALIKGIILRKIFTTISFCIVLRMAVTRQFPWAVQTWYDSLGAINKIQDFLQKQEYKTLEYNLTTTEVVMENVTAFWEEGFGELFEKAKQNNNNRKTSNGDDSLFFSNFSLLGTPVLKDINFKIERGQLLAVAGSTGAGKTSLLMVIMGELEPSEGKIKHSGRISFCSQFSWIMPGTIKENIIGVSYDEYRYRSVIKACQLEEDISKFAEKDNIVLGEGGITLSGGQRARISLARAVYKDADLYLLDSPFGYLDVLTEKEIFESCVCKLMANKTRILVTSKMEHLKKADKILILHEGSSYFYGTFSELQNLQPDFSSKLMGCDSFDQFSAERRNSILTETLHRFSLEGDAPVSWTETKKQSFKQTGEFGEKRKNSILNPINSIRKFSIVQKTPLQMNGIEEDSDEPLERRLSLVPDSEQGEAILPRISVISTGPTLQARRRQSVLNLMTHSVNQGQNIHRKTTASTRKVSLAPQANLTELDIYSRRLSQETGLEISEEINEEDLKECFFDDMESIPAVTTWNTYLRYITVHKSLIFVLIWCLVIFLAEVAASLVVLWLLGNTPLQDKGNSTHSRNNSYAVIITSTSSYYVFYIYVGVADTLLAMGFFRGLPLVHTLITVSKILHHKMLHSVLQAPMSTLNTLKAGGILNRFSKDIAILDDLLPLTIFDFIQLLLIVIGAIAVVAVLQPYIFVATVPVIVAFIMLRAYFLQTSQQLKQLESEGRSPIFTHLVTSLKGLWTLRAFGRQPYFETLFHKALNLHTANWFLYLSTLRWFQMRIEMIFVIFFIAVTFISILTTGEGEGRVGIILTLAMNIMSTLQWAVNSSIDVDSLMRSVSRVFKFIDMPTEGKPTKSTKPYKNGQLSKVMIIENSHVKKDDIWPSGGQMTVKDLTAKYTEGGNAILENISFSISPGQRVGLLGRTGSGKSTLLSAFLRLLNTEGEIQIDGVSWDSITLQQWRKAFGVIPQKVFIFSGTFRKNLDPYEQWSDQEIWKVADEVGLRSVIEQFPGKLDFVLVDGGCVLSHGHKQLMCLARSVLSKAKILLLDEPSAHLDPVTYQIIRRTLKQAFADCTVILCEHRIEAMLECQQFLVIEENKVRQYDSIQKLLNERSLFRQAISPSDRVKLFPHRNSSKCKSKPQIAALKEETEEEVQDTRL

Usually EC30 stands for the concentration at which the effect reaches the 30% level. As for `CC(C)(C)c1ccc(C(=O)NS(=O)(=O)c2cccc(N)n2)c(N2CCC(C3CC3)C2(C)C)n1` (single isomer, unassigned) [Compound 2577, N-[(6-amino-2-pyridyl)sulfonyl]-6-tert-butyl-2-(3-cyclopropyl-2,2-dimethyl-pyrrolidin-1-yl)pyridine-3-carboxamide], where the note is “F508del CFTR modulator activity, compounds of Table 1”, the EC30 result is “+++ (“+++” means <3 uM)”.

With `Cc1cc(C)cc(-c2ccc(C(=O)NS(=O)(=O)c3cccnc3N)c(N3C[C@@H](C)CC3(C)C)n2)c1` [Compound 2127, N-[(2-amino-3-pyridyl)sulfonyl]-6-(3,5-dimethylphenyl)-2-[(4S)-2,2,4-trimethylpyrrolidin-1-yl]pyridine-3-carboxamide], the concentration for an effect of 30% (EC30) under setting [1] is under 3000 nM.

On to `COc1ncccc1S(=O)(=O)NC(=O)c1cc2cc(C)ccc2n1Cc1c(C)cc(C)cc1C` [Compound 267, N-[(2-methoxy-3-pyridyl)sulfonyl]-5-methyl-1-[(2,4,6-trimethylphenyl)methyl]indole-2-carboxamide], for which the EC30 entry under setting [2] is on record as “+++ (“+++” means <3 uM)”.

Turning to `CC1CN(c2ncccc2C(=O)NS(=O)(=O)c2cccc(Nc3ccc4[nH]ncc4c3)n2)C(C)(C)C1` (stereo not drawn) [Compound 2389, N—[[6-(1H-indazol-5-ylamino)-2-pyridyl]sulfonyl]-2-(2,2,4-trimethylpyrrolidin-1-yl)pyridine-3-carboxamide], the concentration for an effect of 30% (EC30) under setting [1] lay in the range of 3000 to 10000 nM.

Turning to `Cc1cc(C)c(Oc2nc(C(C)(C)C)ccc2C(=O)NS(=O)(=O)c2ccccc2C#N)c(C)c1` [Compound 78, 6-tert-butyl-N-(2-cyanophenyl)sulfonyl-2-(2,4,6-trimethylphenoxy)pyridine-3-carboxamide], the EC30 entry under setting [2] is given as “+++ (“+++” means <3 uM)”.

`Cc1cccc(C)c1Cn1nc(-c2ccccc2C#N)cc1C(=O)NS(=O)(=O)c1ccccc1` [Compound 99, N-(benzenesulfonyl)-5-(2-cyanophenyl)-2-[(2,6-dimethylphenyl)methyl]pyrazole-3-carboxamide]: the EC30 result under setting [2] is reported as “+++ (“+++” means <3 uM)”.

Take `Cc1ccc(-c2nc(C(C)(C)C)ccc2C(=O)NS(=O)(=O)c2cccc(N)c2)cc1F` [Compound 349, N-(3-aminophenyl)sulfonyl-6-tert-butyl-2-(3-fluoro-4-methyl-phenyl)pyridine-3-carboxamide]: under setting [2], the EC30 result was “++ (“++” means between 3 uM and 10 uM)”.

With `CC1CN(c2ncccc2C(=O)NS(=O)(=O)c2cccc(N3CCCCC3C)n2)C(C)(C)C1` (stereo not drawn) [Compound 2747], the 30% effect concentration (EC30) under setting [1] is under 3000 nM.

For `CCOCCOc1ccc(C(=O)NS(=O)(=O)c2cccc(N)n2)c(N2C[C@@H](C)CC2(C)C)n1` [Compound 2678, N-[(6-amino-2-pyridyl)sulfonyl]-6-(2-ethoxyethoxy)-2-[(4S)-2,2,4-trimethylpyrrolidin-1-yl]pyridine-3-carboxamide], the concentration for an effect of 30% (EC30) under setting [1] is 3000 to 10000 nM.

With `C[C@@H]1CN(c2nc3ccccc3cc2C(=O)NS(=O)(=O)c2ccc[nH]c2=O)C(C)(C)C1` [Compound 2405, N-[(2-oxo-1H-pyridin-3-yl)sulfonyl]-2-[(4S)-2,2,4-trimethylpyrrolidin-1-yl]quinoline-3-carboxamide], the EC30 under setting [1] was under 3000 nM.

Consider `Cc1cc(C)c(Oc2nc(-c3c(C)cccc3C)ccc2C(=O)NS(=O)(=O)c2cccc(N)n2)c(C)c1` [Compound 97, N-[(6-amino-2-pyridyl)sulfonyl]-6-(2,6-dimethylphenyl)-2-(2,4,6-trimethylphenoxy)pyridine-3-carboxamide], for which the EC30 entry under setting [2] is “+++ (“+++” means <3 uM)”.

In the case of `CC1CN(c2ncccc2C(=O)NS(=O)(=O)c2cccc(NCc3cc(F)cc(F)c3)n2)C(C)(C)C1` (stereo not drawn) [Compound 2421, N—[[6-[(3,5-difluorophenyl)methylamino]-2-pyridyl]sulfonyl]-2-(2,2,4-trimethylpyrrolidin-1-yl)pyridine-3-carboxamide], the EC30 under setting [1] is under 3000 nM.
